Measured values taken from PMC7027746 (Clinical Pharmacology in Drug Development, 2019).
Where two headings read alike, the source gives them in different places.

Experiments:
[1] = tested on: CYP3A expression; conditions: human hepatocytes, clinically relevant concentrations, via activation of the pregnane X receptor; cited from earlier work
[2] = Rifampin DDI arm: single-dose brigatinib plasma PK with and without rifampin; type: in vivo, human; conditions: for half-life / Cmax / AUC: human, plasma
[3] = healthy volunteers, cited from earlier work
[4] = tested on: CYP2C8; conditions: human liver microsomes, clinically relevant concentrations; ref data on file; cited from earlier work
[5] = tested on: CYP2B6; conditions: human liver microsomes, clinically relevant concentrations; ref data on file; cited from earlier work
[6] = tested on: healthy subjects; assay: Safety and tolerability; type: in vivo, human
[7] = type: in vivo, human; conditions: for CL/F, geometric mean (% CV) / CL/F, mean (SD) / AUC / Cmax: healthy subjects
[8] = type: in vivo, human; conditions: for CL/F, geometric mean (% CV) / CL/F, mean (SD) / AUC / Cmax: healthy subjects; remark: listed apart in the source
[9] = tested on: crizotinib‐naive patients with ALK‐positive NSCLC; conditions: cited from earlier work
[10] = tested on: CYP3A4/5; conditions: human liver microsomes, clinically relevant concentrations; ref data on file; cited from earlier work
[11] = tested on: CYP2C19; conditions: human liver microsomes, clinically relevant concentrations; ref data on file; cited from earlier work
[12] = tested on: CYP1A2; conditions: human liver microsomes, clinically relevant concentrations; ref data on file; cited from earlier work
[13] = tested on: CYP2C9; conditions: human liver microsomes, clinically relevant concentrations; ref data on file; cited from earlier work
[14] = single 180‐mg oral dose of [14C]‐brigatinib, healthy volunteers; cited from earlier work
[15] = cited from earlier work
[16] = tested on: CYP2D6; conditions: human liver microsomes, clinically relevant concentrations; ref data on file; cited from earlier work
[17] = brigatinib 180 mg + rifampin vs brigatinib alone
[18] = brigatinib + rifampin compared with brigatinib alone
[19] = healthy subjects, single 180 mg oral brigatinib + rifampin 600 mg QD (test), n = 19
[20] = healthy subjects, single 180 mg oral brigatinib alone (reference), n = 20
[21] = brigatinib coadministered with gemfibrozil
[22] = brigatinib 90 mg + itraconazole vs brigatinib alone
[23] = brigatinib + itraconazole compared with brigatinib alone
[24] = single 90 mg oral brigatinib + itraconazole 200 mg BID (test), n = 11
[25] = single 90 mg oral brigatinib alone (reference), n = 20
[26] = human, plasma, po, 90 mg, AUC0‐120, geometric mean (% CV), single 90 mg oral brigatinib alone (reference), n = 20
[27] = human, plasma, po, 90 mg, AUC0‐120, mean (SD), single 90 mg oral brigatinib alone (reference), n = 20
[28] = human, plasma, po, 90 mg, geometric mean (% CV), single 90 mg oral brigatinib alone (reference), n = 20
[29] = brigatinib 90 mg + gemfibrozil vs brigatinib alone
[30] = brigatinib + gemfibrozil compared with brigatinib alone
[31] = single 90 mg oral brigatinib + gemfibrozil 600 mg BID (test), n = 19
[32] = single 90 mg oral brigatinib alone (reference), n = 19

In the case of `COc1cc(N2CCC(N3CCN(C)CC3)CC2)ccc1Nc1ncc(Cl)c(Nc2ccccc2P(C)(C)=O)n1` [brigatinib, Brigatinib], the “induction of CYP3A expression” value [1] is listed as “induced CYP3A expression”, the “AUC0‐120, geometric LS mean ratio (90%CI) (test vs reference)” value [2, 17] is listed as 0.20 (0.19‐0.22) and the “CL/F, geometric LS mean ratio (90%CI) (test vs reference)” value (“CL/F, geometric LS mean ratio (90%CI)” for short) [2, 17] is listed as 5.11 (4.73‐5.51). The “decrease of geometric mean Cmax” value [2, 18] was 60%, the “reduction of geometric mean AUC0‐inf” value [2, 18] was 80% and the “CL/F, geometric mean (% CV)” value [2, 19] was 59.2 (25.8) L/h. The “CL/F, mean (SD)” value [2, 19] was 61.0 (15.4) L/h, the “tmax, median (range)” value [2, 19] was 2.0 (1.0‐4.0) h and the “CL/F, geometric mean (% CV)” value [2, 20] was 11.5 (34.4) L/h. For the same compound, the “CL/F, mean (SD)” value [2, 20] was 12.2 (4.3) L/h, the half-life ([2]; oral, 180 mg, geometric mean t½, brigatinib 180 mg in the presence of rifampin) was 23.4 h and the Cmax ([2]; po, 180 mg, geometric mean (% CV), healthy subjects, single 180 mg oral brigatinib alone (reference), n = 20) was 826 ng/mL. It also gave an AUC ([2]; po, AUC0‐120, geometric mean (% CV), healthy subjects, single 180 mg oral brigatinib + rifampin 600 mg QD (test), n = 19) of 3020 ng·h/mL, an AUC ([2]; po, AUC0‐120, mean (SD), healthy subjects, single 180 mg oral brigatinib + rifampin 600 mg QD (test), n = 19) of 3110 ng·h/mL and an AUC ([2]; po, AUC0‐inf, geometric mean (% CV), healthy subjects, single 180 mg oral brigatinib + rifampin 600 mg QD (test), n = 19) of 3040 ng·h/mL. The AUC ([2]; po, AUC0‐inf, mean (SD), healthy subjects, single 180 mg oral brigatinib + rifampin 600 mg QD (test), n = 19) was 3140 ng·h/mL, the Cmax ([2]; po, geometric mean (% CV), healthy subjects, single 180 mg oral brigatinib + rifampin 600 mg QD (test), n = 19) was 334 ng/mL and the Cmax ([2]; po, mean (SD), healthy subjects, single 180 mg oral brigatinib + rifampin 600 mg QD (test), n = 19) was 347 ng/mL. For the same compound, the half-life ([2]; po, t½, mean (SD), healthy subjects, single 180 mg oral brigatinib + rifampin 600 mg QD (test), n = 19) was 23.7 h, the “increase in CL/F” value ([2]; in the presence of rifampin) was “approximately 5 fold” and the “decrease of peak concentration (Cmax) by a high‐fat meal” value ([3]; compared with fasted‐state administration) was 13%. For the same compound, the “median time to Cmax (tmax)” value ([3]; fasted state) was 2 h, the “median time to Cmax (tmax)” value ([3]; high‐fat meal) was 5 h and the “effect of a high‐fat meal on total systemic exposure” value [3] was “no impact”. For the same compound, the “inhibition of CYP2C8 activity” value [4] was “did not inhibit”, the “inhibition of CYP2B6 activity” value [5] was “did not inhibit” and the “Any serious TEAE” value ([6]; Gemfibrozil DDI arm (n = 20)) was 0 n (%). The “Any severe TEAE” value ([6]; Gemfibrozil DDI arm (n = 20)) was 0 n (%), the “On‐study deaths” value ([6]; Gemfibrozil DDI arm (n = 20)) was 0 n (%) and the “Any TEAE” value ([6]; Gemfibrozil DDI arm (n = 20), brigatinib 90 mg alone and with gemfibrozil) was 9 (45) n (%). For the same compound, the “AE leading to discontinuation” value ([6]; Gemfibrozil DDI arm (n = 20), emesis, treatment period 2) was 1 n (%), the “AE leading to discontinuation” value ([6]; Itraconazole DDI arm (n = 20)) was 0 n (%) and the “Any serious TEAE” value ([6]; Itraconazole DDI arm (n = 20)) was 0 n (%). For the same compound, the “Any severe TEAE” value ([6]; Itraconazole DDI arm (n = 20)) was 0 n (%), the “On‐study deaths” value ([6]; Itraconazole DDI arm (n = 20)) was 0 n (%) and the “Any serious TEAE” value ([6]; Rifampin DDI arm (n = 20)) was 0 n (%). The “Any severe TEAE” value ([6]; Rifampin DDI arm (n = 20)) was 0 n (%), the “On‐study deaths” value ([6]; Rifampin DDI arm (n = 20)) was 0 n (%) and the “AE leading to discontinuation” value ([6]; Rifampin DDI arm (n = 20), elevated aspartate aminotransferase and alanine aminotransferase, treatment period 2) was 1 n (%). For the same compound, the “TEAE incidence: cough” value [6, 21] was 20%, the “TEAE incidence: throat irritation” value [6, 21] was 10% and the “TEAE incidence: cough” value ([6]; brigatinib coadministered with rifampin) was 10%. For the same compound, the “CL/F, geometric LS mean ratio (90%CI)” value [7, 22] was 0.50 (0.45‐0.54), the “Cmax, geometric LS mean ratio (90%CI) (test vs reference)” value [7, 22] was 1.21 (1.13‐1.30) and the “increase of geometric mean AUC0‐120” value [7, 23] was 82%. The “increase of geometric mean AUC0‐inf” value [7, 23] was 101%, the “increase of geometric mean Cmax” value [7, 23] was 21% and the “prolongation in the geometric mean t½” value [7, 23] was roughly 50%. The “increase of systemic exposure” value ([7]; by itraconazole) was 2 fold, the “CL/F, geometric mean (% CV)” value [7, 24] was 6.67 (35.6) L/h and the “CL/F, mean (SD)” value [7, 24] was 7.05 (2.54) L/h. For the same compound, the “CL/F, geometric mean (% CV)” value [7, 25] was 14.0 (28.7) L/h, the “CL/F, mean (SD)” value [7, 25] was 14.46 (3.84) L/h and the Tmax ([7]; human, plasma, po, 90 mg) was 2.8 h. It also gave a half-life ([7]; human, plasma, po, 90 mg) of 30.5 h, an AUC [7, 26] of 6140 ng·h/mL and an AUC [7, 27] of 6380 ng·h/mL. It also gave an AUC ([7]; human, plasma, po, 90 mg, AUC0‐inf, geometric mean (% CV), single 90 mg oral brigatinib alone (reference), n = 20) of 6450 ng·h/mL, an AUC ([7]; human, plasma, po, 90 mg, AUC0‐inf, mean (SD), single 90 mg oral brigatinib alone (reference), n = 20) of 6710 ng·h/mL and a Cmax [7, 28] of 331 ng/mL. For the same compound, the Cmax ([7]; human, plasma, po, geometric mean (% CV), single 90 mg oral brigatinib + itraconazole 200 mg BID (test), n = 20) was 401 ng/mL, the Cmax ([7]; human, plasma, po, mean (SD), single 90 mg oral brigatinib + itraconazole 200 mg BID (test), n = 20) was 429 ng/mL and the “AUC0‐120, geometric LS mean ratio (90%CI) (test vs reference)” value [8, 29] was 0.85 (0.80‐0.91). The “CL/F, geometric LS mean ratio (90%CI)” value [8, 29] was 1.13 (1.06‐1.20), the “reduction in peak concentrations” value [8, 30] was “approximately 40%” and the “reduction of geometric mean AUC0‐inf” value [8, 30] was 12%. For the same compound, the “CL/F, geometric mean (% CV)” value [8, 31] was 15.7 (25.7) L/h, the “CL/F, mean (SD)” value [8, 31] was 16.2 (4.3) L/h and the “CL/F, geometric mean (% CV)” value [8, 32] was 13.1 (33.9) L/h. For the same compound, the “CL/F, mean (SD)” value [8, 32] was 13.8 (4.6) L/h, the half-life ([8]; human, plasma, oral, 90 mg) was 26.5 h and the Tmax ([8]; human, plasma, po, 90 mg) was 2 h. It also gave a half-life ([8]; human, plasma, po, 90 mg) of 26.7 h, an AUC [8, 26] of 6490 ng·h/mL and an AUC [8, 27] of 6840 ng·h/mL. It also gave an AUC ([8]; human, plasma, po, 90 mg, AUC0‐inf, geometric mean (% CV), single 90 mg oral brigatinib alone (reference), n = 19) of 6880 ng·h/mL, an AUC ([8]; human, plasma, po, 90 mg, AUC0‐inf, mean (SD), single 90 mg oral brigatinib alone (reference), n = 19) of 7230 ng·h/mL and a Cmax [8, 28] of 348 ng/mL. It also gave an AUC ([8]; human, plasma, po, AUC0‐120, geometric mean (% CV), single 90 mg oral brigatinib + gemfibrozil 600 mg BID (test), n = 19) of 5340 ng·h/mL, an AUC ([8]; human, plasma, po, AUC0‐120, mean (SD), single 90 mg oral brigatinib + gemfibrozil 600 mg BID (test), n = 19) of 5520 ng·h/mL and an AUC ([8]; human, plasma, po, AUC0‐inf, geometric mean (% CV), single 90 mg oral brigatinib + gemfibrozil 600 mg BID (test), n = 19) of 5740 ng·h/mL. It also gave an AUC ([8]; human, plasma, po, AUC0‐inf, mean (SD), single 90 mg oral brigatinib + gemfibrozil 600 mg BID (test), n = 19) of 5910 ng·h/mL, a Cmax ([8]; human, plasma, po, geometric mean (% CV), single 90 mg oral brigatinib + gemfibrozil 600 mg BID (test), n = 19) of 199 ng/mL and a Cmax ([8]; human, plasma, po, mean (SD), single 90 mg oral brigatinib + gemfibrozil 600 mg BID (test), n = 19) of 210 ng/mL. For the same compound, the “hazard ratio, progression‐free survival” value ([9]; brigatinib versus crizotinib, P < .001) was 0.49 [95%CI, 0.33‐0.74], the “12‐month progression‐free survival” value ([9]; phase 3 trial, crizotinib‐naive patients with ALK‐positive NSCLC) was 67% and the “inhibition of CYP3A4/5 activity” value [10] was “did not inhibit”. For the same compound, the “inhibition of CYP2C19 activity” value [11] was “did not inhibit”, the “inhibition of CYP1A2 activity” value [12] was “did not inhibit” and the “inhibition of CYP2C9 activity” value [13] was “did not inhibit”. For the same compound, the “administered dose recovered in feces” value [14] was 65%, the “administered dose recovered in urine” value [14] was 25% and the “share of circulating radioactive components” value [14] was 92%. The “steady‐state apparent oral clearance (CL/F)” value ([15]; 180 mg once daily in patients with cancer) was 12.7 L/h, the “single‐ and repeat‐dose systemic exposures versus dose” value ([15]; patients with cancer, dose range 60‐240 mg once daily) was “increased dose‐proportionally” and the “inhibition of CYP2D6 activity” value [16] was “did not inhibit”.
